Reference: ChEMBL document CHEMBL4706474, “Tetrahydro-2-naphthyl and 2-Indanyl Triazolopyrimidines Targeting Plasmodium falciparum Dihydroorotate Dehydrogenase Display Potent and Selective Antimalarial Activity” (J Med Chem, 2016)
≈ marks a conversion by molar mass, not a printed value.

How the values were obtained:
[1] = Unbound AUC (0 to infinity) in Sprague-Dawley rat at 18.8 mg/kg, po by LC-MS analysis; assay type: ADME, organism-based; conditions: in vivo
[2] = Protein binding in Swiss mouse plasma at 10 mg/kg, po administered as single dose via gavage measured over 24 hrs by LC-MS analysis; assay type: ADME, organism-based; conditions: read-out: PPB (converted)
Plasmodium falciparum [3] = test: Antiplasmodial activity against Plasmodium falciparum 3D7 infected in RBC assessed as reduction in parasitemia incubated for 72 hrs by SYBR green dye-based assay; assay type: functional, organism-based; conditions: Plasmodium falciparum, 3D7, Erythrocyte, 72 h
[4] = Unbound Clearance in Sprague-Dawley rat at […], iv by LC-MS analysis; assay type: ADME, organism-based; conditions: in vivo, dose 2.6 mg/kg
[5] = Unbound AUC (0 to infinity) in Swiss mouse at 10 mg/kg, po by LC-MS analysis; assay type: ADME, organism-based; conditions: in vivo
Plasmodium falciparum [6] = test: Antiplasmodial activity against Plasmodium falciparum 3D7 infected in po dosed NSG mouse assessed as reduction in parasitemia administered twice daily for 4 consecutive days starting from day 3 post-infection and measured 24 hrs post last dose by flow cytometric analysis; assay type: functional; conditions: 3D7, po, 96 h, time 4 day
[7] = AUC (0 to infinity) in Sprague-Dawley rat at […], iv by LC-MS analysis; assay type: ADME, organism-based; design: time infinity, route intravenous, dose 2.6 mg/kg; conditions: in vivo
[8] = Intrinsic clearance in rat liver microsomes assessed per mg protein at 1 uM by LC-MS analysis; assay type: ADME, Microsome; conditions: rat liver microsomes, read-out: CLH
[9] = Solubility of compound in 0.1 N HCl measured after 5 to 6 hrs by HPLC-UV based analysis; assay type: physicochemical; conditions: buffer; time 5-6 hrs
[10] = Protein binding in Sprague-Dawley rat plasma at […], iv administered as infusion for 10 mins by LC-MS analysis; assay type: ADME, organism-based; conditions: dose 2.6 mg/kg, read-out: PPB (converted)
[11] = Intrinsic clearance in human pooled liver microsomes assessed per mg protein at 1 uM by LC-MS analysis; assay type: ADME, Microsome; conditions: pooled human liver microsomes
[12] = Unbound volume of distribution at steady state in Sprague-Dawley rat at […], iv by LC-MS analysis; assay type: ADME, organism-based; conditions: in vivo, dose 2.6 mg/kg
[13] = Protein binding in mouse plasma assessed as bound fraction by LC-MS analysis based ultracentrifugation assay; assay type: ADME, cell-free; conditions: read-out: PPB (converted)
[14] = Protein binding in rat plasma assessed as bound fraction by LC-MS analysis based ultracentrifugation assay; assay type: ADME, cell-free; conditions: read-out: PPB (converted)
[15] = Intrinsic clearance in mouse liver microsomes at 1 uM by LC-MS analysis; assay type: ADME, Microsome
Plasmodium falciparum [16] = test: Antiplasmodial activity against Plasmodium falciparum 3D7 infected in po dosed NSG mouse assessed as blood AUC level require to show 90% reduction in parasitemia administered once daily for 4 consecutive days starting from day 3 post-infection and measured 24 hrs post last dose by flow cytometric analysis; assay type: functional, organism-based; conditions: time 4.0 day
[17] = Unbound Cmax in Sprague-Dawley rat at 18.8 mg/kg, po by LC-MS analysis; assay type: ADME, organism-based; conditions: in vivo
[18] = Unbound Cmax in Swiss mouse at 10 mg/kg, po by LC-MS analysis; assay type: ADME, organism-based; conditions: in vivo
[19] = Unbound AUC (0 to infinity) in Sprague-Dawley rat at […], iv by LC-MS analysis; assay type: ADME, organism-based; conditions: in vivo, dose 2.6 mg/kg

## Cc1cc(Nc2ccc(S(F)(F)(F)(F)F)cc2)n2nc(C(C)(F)F)nc2n1 [DSM-265]
[1]
  fAUC: 2800 nM·h
[2]
  fraction unbound at 24 h: 0.003
Plasmodium falciparum [3]
  EC50: 4.3 nM
[4]
  CL free: 15.8 L/h/kg
[5]
  fAUC: 70 nM·h
Plasmodium falciparum [6]
  ED90: 3 mg/kg
[7]
  AUC(0-inf): 17400 nM·h
[8]
  microsomal CLint at 1 µM: 1.8 µL/min/mg
[9]
  solubility: 6.8 µg/mL (≈ 16.4 µM)
[10]
  fraction unbound at 10 min: 0.023
[11]
  microsomal CLint at 1 µM: 4.3 µL/min/mg
[12]
  fVdss: 257 L/kg
[13]
  fraction unbound: 0.003
[14]
  fraction unbound: 0.023
[15]
  intrinsic clearance: 2.8 µL/min
Plasmodium falciparum [16]
  AUCED90: 30.8 µM.hr/day
[17]
  fCmax: 0.09 µM
[18]
  fCmax: 0.01 µM
[19]
  fAUC: 400 nM·h
